biological target: T1, rat B1R (bradykinin receptor 1) (Rattus norvegicus, UniProt P97583); experiment: FLIPR Ca2+ assay (Fluo-4) on CHO K1 cells stably transfected with the B1R gene of the rat (rB1R cells): % inhibition at 10 μM / IC50, agonist Des-Arg9-bradykinin; assay type: cell-based; details: CHO-K1, rat B1R
T1 construct: expressed in transfected cells; host or cells: CHO K1 cells
T1 sequence (P97583 1-337): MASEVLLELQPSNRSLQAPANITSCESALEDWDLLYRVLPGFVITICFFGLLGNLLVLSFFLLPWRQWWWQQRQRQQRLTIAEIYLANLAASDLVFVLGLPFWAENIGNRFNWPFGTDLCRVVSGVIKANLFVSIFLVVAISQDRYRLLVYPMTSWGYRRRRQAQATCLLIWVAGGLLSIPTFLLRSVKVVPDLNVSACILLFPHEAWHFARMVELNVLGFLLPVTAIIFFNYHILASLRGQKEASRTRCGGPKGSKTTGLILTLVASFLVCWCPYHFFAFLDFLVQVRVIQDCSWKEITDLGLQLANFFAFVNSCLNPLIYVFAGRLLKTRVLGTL
Procedure, shortened: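 Cells were Fluo-4-loaded, then test compound (10 μM, or a concentration series for IC50) was preincubated 10–20 min before agonist challenge at EC80: Lys-Des-Arg9-bradykinin for hB1R, Des-Arg9-bradykinin for rB1R. Peak Ca2+ fluorescence (ex 488/em 540 nm) gave % inhibition versus maximal achievable inhibition.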

inhibition at 10 µM [%] | Compound
95 | O=C(NC1CCc2ccc(C(=O)N3CCC4(CCN(CCCc5cccc(F)c5)CC4)C3)cc21)c1cc(C(F)(F)F)ccc1Cl (stereo not shown) [IND_CC-691, 2-Chloro-N-[6-[8-[3-(3-fluorophenyl)-propyl]-2,8-diazaspiro[4.5]decane-2-carbonyl]-2,3-dihydro-1H-inden-1-yl]-5-(trifluoromethyl)-benzamide]
99 | O=C(NC1CCc2ccc(C(=O)N3CCC4(CCN(CCCc5ccc(F)cc5)CC4)C3)cc21)c1cc(C(F)(F)F)ccc1Cl (stereo not shown) [IND_CC-692, 2-Chloro-N-[6-[8-[3-(4-fluorophenyl)-propyl]-2,8-diazaspiro[4.5]decane-2-carbonyl]-2,3-dihydro-1H-inden-1-yl]-5-(trifluoromethyl)-benzamide]
68 | CCn1cc(CN2CCC3(CC2)CCN(C(=O)c2ccc4c(c2)C(NC(=O)c2cc(C(F)(F)F)ccc2Cl)CC4)CC3)c(C)n1 (stereo not shown) [IND_CC-693, 2-Chloro-N-[6-[9-[(1-ethyl-3-methyl-1H-pyrazol-4-yl)-methyl]-3,9-diazaspiro[5.5]-undecane-3-carbonyl]-2,3-dihydro-1H-inden-1-yl]-5-(trifluoromethyl)-benzamide]
100 | CN(C)c1ncc(CN2CCC3(CC2)CCN(C(=O)c2ccc4c(c2)C(NC(=O)c2cc(C(F)(F)F)ccc2Cl)CC4)CC3)cn1 (stereo not shown) [IND_CC-694, 2-Chloro-N-[6-[9-[(2-dimethylamino-pyrimidin-5-yl)-methyl]-3,9-diazaspiro[5.5]-undecane-3-carbonyl]-2,3-dihydro-1H-inden-1-yl]-5-(trifluoromethyl)-benzamide]
100 | O=C(NC1CCc2ccc(C(=O)N3CCC4(CCN(Cc5ccc6ncccc6c5)CC4)CC3)cc21)c1cc(C(F)(F)F)ccc1Cl (stereo not shown) [IND_CC-695, 2-Chloro-N-[6-[9-(quinolin-6-yl-methyl)-3,9-diazaspiro[5.5]undecane-3-carbonyl]-2,3-dihydro-1H-inden-1-yl]-5-(trifluoromethyl)-benzamide]
102 | O=C(NC1CCc2ccc(C(=O)N3CCC4(CCN(Cc5ccc6nccnc6c5)CC4)CC3)cc21)c1cc(C(F)(F)F)ccc1Cl (stereo not shown) [IND_CC-696, 2-Chloro-N-[6-[9-(quinoxalin-6-yl-methyl)-3,9-diazaspiro[5.5]undecane-3-carbonyl]-2,3-dihydro-1H-inden-1-yl]-5-(trifluoromethyl)-benzamide]
90 | CC(C)CN1CCC2(CC1)CCN(C(=O)c1ccc3c(c1)C(NC(=O)c1cc(C(F)(F)F)ccc1Cl)CC3)CC2 (stereo not shown) [IND_CC-698, 2-Chloro-N-[6-[9-(2-methyl-propyl)-3,9-diazaspiro[5.5]undecane-3-carbonyl]-2,3-dihydro-1H-inden-1-yl]-5-(trifluoromethyl)-benzamide]
75 | CCC(CC)CN1CCC2(CC1)CCN(C(=O)c1ccc3c(c1)C(NC(=O)c1cc(C(F)(F)F)ccc1Cl)CC3)CC2 (stereo not shown) [IND_CC-699, 2-Chloro-N-[6-[9-(2-ethyl-butyl)-3,9-diazaspiro[5.5]undecane-3-carbonyl]-2,3-dihydro-1H-inden-1-yl]-5-(trifluoromethyl)-benzamide]
64 | O=C(NC1CCc2ccc(C(=O)N3CCC4(CCN(CC5CCCCC5)CC4)CC3)cc21)c1cc(C(F)(F)F)ccc1Cl (stereo not shown) [IND_CC-700, 2-Chloro-N-[6-[9-(cyclohexyl-methyl)-3,9-diazaspiro[5.5]undecane-3-carbonyl]-2,3-dihydro-1H-inden-1-yl]-5-(trifluoromethyl)-benzamide]
96 | O=C(NC1CCc2ccc(C(=O)N3CCC4(CCN(CCc5ccccc5)CC4)CC3)cc21)c1cc(C(F)(F)F)ccc1Cl (stereo not shown) [IND_CC-701, 2-Chloro-N-[6-(9-phenethyl-3,9-diazaspiro[5.5]undecane-3-carbonyl)-2,3-dihydro-1H-inden-1-yl]-5-(trifluoromethyl)-benzamide]
80 | O=C(NC1CCc2ccc(C(=O)N3CCC4(CCN(CCCc5cccc(F)c5)CC4)CC3)cc21)c1cc(C(F)(F)F)ccc1Cl (stereo not shown) [IND_CC-702, 2-Chloro-N-[6-[9-[3-(3-fluorophenyl)-propyl]-3,9-diazaspiro[5.5]undecane-3-carbonyl]-2,3-dihydro-1H-inden-1-yl]-5-(trifluoromethyl)-benzamide]
70 | O=C(NC1CCc2ccc(C(=O)N3CCC4(CCN(CCCc5ccc(F)cc5)CC4)CC3)cc21)c1cc(C(F)(F)F)ccc1Cl (stereo not shown) [IND_CC-703, 2-Chloro-N-[6-[9-[3-(4-fluorophenyl)-propyl]-3,9-diazaspiro[5.5]undecane-3-carbonyl]-2,3-dihydro-1H-inden-1-yl]-5-(trifluoromethyl)-benzamide]
91 | CCCNC(=O)N1CCC2(CC1)CCN(C(=O)c1ccc3c(c1)C(NC(=O)c1ccccc1Cl)CC3)CC2 (stereo not shown) [IND_CC-704, 3-[3-[(2-Chloro-benzoyl)amino]-2,3-dihydro-1H-indene-5-carbonyl]-N-propyl-3,9-diazaspiro[5.5]undecane-9-carboxylic acid amide]
101 | N#Cc1cccc(NC(=O)N2CCC3(CC2)CCN(C(=O)c2ccc4c(c2)C(NC(=O)c2ccccc2Cl)CC4)CC3)c1 (stereo not shown) [IND_CC-705, 3-[3-[(2-Chloro-benzoyl)amino]-2,3-dihydro-1H-indene-5-carbonyl]-N-(3-cyano-phenyl)-3,9-diazaspiro[5.5]undecane-9-carboxylic acid amide]
103 | O=C(NC1CCc2ccc(C(=O)N3CCC4(CCN(C(=O)NCc5ccccc5)CC4)CC3)cc21)c1ccccc1Cl (stereo not shown) [IND_CC-706, N-Benzyl-3-[3-[(2-chloro-benzoyl)amino]-2,3-dihydro-1H-indene-5-carbonyl]-3,9-diazaspiro[5.5]undecane-9-carboxylic acid amide]
92 | CN(C)c1ccc(NC(=O)N2CCC3(CC2)CCN(C(=O)c2ccc4c(c2)C(NC(=O)c2ccccc2Cl)CC4)CC3)cc1 (stereo not shown) [IND_CC-707, 3-[3-[(2-Chloro-benzoyl)amino]-2,3-dihydro-1H-indene-5-carbonyl]-N-(4-dimethylaminophenyl)-3,9-diazaspiro[5.5]undecane-9-carboxylic acid amide]
99 | O=C(NC1CCc2ccc(C(=O)N3CCC4(CCN(C(=O)NC5CCCCC5)CC4)CC3)cc21)c1ccccc1Cl (stereo not shown) [IND_CC-708, 3-[3-[(2-Chloro-benzoyl)amino]-2,3-dihydro-1H-indene-5-carbonyl]-N-cyclohexyl-3,9-diazaspiro[5.5]undecane-9-carboxylic acid amide]
91 | O=C(NC1CCc2ccc(C(=O)N3CCC4(CCN(C(=O)Nc5c(Cl)cccc5Cl)CC4)CC3)cc21)c1ccccc1Cl (stereo not shown) [IND_CC-709, 3-[3-[(2-Chloro-benzoyl)amino]-2,3-dihydro-1H-indene-5-carbonyl]-N-(2,6-dichloro-phenyl)-3,9-diazaspiro[5.5]undecane-9-carboxylic acid amide]
90 | O=C(NC1CCc2ccc(C(=O)N3CCC4(CCN(C(=O)Nc5ccc(Cl)cc5Cl)CC4)CC3)cc21)c1ccccc1Cl (stereo not shown) [IND_CC-710, 3-[3-[(2-Chloro-benzoyl)amino]-2,3-dihydro-1H-indene-5-carbonyl]-N-(2,4-dichlorophenyl)-3,9-diazaspiro[5.5]undecane-9-carboxylic acid amide]
94 | O=C(NC1CCc2ccc(C(=O)N3CCC4(CCN(C(=O)Nc5ccc(F)cc5F)CC4)CC3)cc21)c1ccccc1Cl (stereo not shown) [IND_CC-711, 3-[3-[(2-Chloro-benzoyl)amino]-2,3-dihydro-1H-indene-5-carbonyl]-N-(2,4-difluoro-phenyl)-3,9-diazaspiro[5.5]undecane-9-carboxylic acid amide]
76 | CCCNC(=O)N1CCC2(CC1)CCN(C(=O)c1ccc3c(c1)C(N(C(=O)c1ccccc1Cl)C1CC1)CC3)C2 (stereo not shown) [IND_CC-712, 2-[3-[(2-Chloro-benzoyl)-cyclopropyl-amino]-2,3-dihydro-1H-indene-5-carbonyl]-N-propyl-2,8-diazaspiro[4.5]decane-8-carboxylic acid amide]
77 | O=C(Nc1ccc(F)c(Cl)c1)N1CCC2(CC1)CCN(C(=O)c1ccc3c(c1)C(N(C(=O)c1ccccc1Cl)C1CC1)CC3)C2 (stereo not shown) [IND_CC-713, 2-[3-[(2-Chloro-benzoyl)-cyclopropyl-amino]-2,3-dihydro-1H-indene-5-carbonyl]-N-(3-chloro-4-fluoro-phenyl)-2,8-diazaspiro[4.5]decane-8-carboxylic acid amide]
51 | O=C(Nc1ccc(Cl)cc1C(F)(F)F)N1CCC2(CC1)CCN(C(=O)c1ccc3c(c1)C(N(C(=O)c1ccccc1Cl)C1CC1)CC3)C2 (stereo not shown) [IND_CC-714, 2-[3-[(2-Chloro-benzoyl)-cyclopropyl-amino]-2,3-dihydro-1H-indene-5-carbonyl]-N-[4-chloro-2-(trifluoromethyl)-phenyl]-2,8-diazaspiro[4.5]decane-8-carboxylic acid amide]
79 | N#Cc1cccc(NC(=O)N2CCC3(CC2)CCN(C(=O)c2ccc4c(c2)C(N(C(=O)c2ccccc2Cl)C2CC2)CC4)C3)c1 (stereo not shown) [IND_CC-715, 2-[3-[(2-Chloro-benzoyl)-cyclopropyl-amino]-2,3-dihydro-1H-indene-5-carbonyl]-N-(3-cyano-phenyl)-2,8-diazaspiro[4.5]decane-8-carboxylic acid amide]
80 | O=C(NCc1ccccc1)N1CCC2(CC1)CCN(C(=O)c1ccc3c(c1)C(N(C(=O)c1ccccc1Cl)C1CC1)CC3)C2 (stereo not shown) [IND_CC-716, N-Benzyl-2-[3-[(2-chloro-benzoyl)-cyclopropyl-amino]-2,3-dihydro-1H-indene-5-carbonyl]-2,8-diazaspiro[4.5]decane-8-carboxylic acid amide]

Source: US8455475B2 (Gruenenthal GmbH, priority 2009, dated 2013)
